Source: patent US5998476A, “Synthetic polyunsaturated fatty acid analogues” (Peptide Technology Limited, priority 1994, dated 1999)
Like-named read-outs stand apart in the source and are kept apart here.

How the values were obtained:
[1] = test system: chloroquine-resistant P. falciparum strain K; test: Inhibition of chloroquine-resistant P. falciparum strain K (direct anti-malarial activity); format: cell-based; settings: All PUFA at 11μm
[2] = test system: peripheral blood mononuclear cells; test: PHA-induced proliferation of peripheral blood mononuclear cells (thymidine incorporation); format: cell-based; settings: Homo sapiens, PBMC, read-out: % INHIBITION OF PROLIFERATION
Method: Mononuclear cells were separated from peripheral blood of normal human donors as described by Ferrante and Thong (1978 . . . ). The mononuclear cells were resuspended in RPMI-1640 containing 20% human AB serum and placed into 96 well microtrays (50 μl per well, cell density 4×10^6 cells/ml). Fatty acid was then added in 50 μl and pre-incubated with the cells for 30 min at 37° C. in 5% CO2. Mitogen (PHA, ConA, PWM. Staph, Aureus) was then added in 100 μl and the cells incubated for 66 hours at 37° C. in 5% CO2 before the addition of tritiated thymnidine (1 μCi/well). After a total of 72 h in culture, the cells were harvested and proliferation (thymidine incorporation) and supernatants assayed for the presence of cytokines.

Row | Compound | % INHIBITION of P. falciparum [1] [%] | inhibition at 20 µM [2] [%] | inhibition at 20 µM ([2]; All PUFA at 20μM, PHA-induced) [%]
1 | CCN(CC)CCCC(C)Nc1ccnc2cc(Cl)ccc12 (centres unmarked) [Chloroquine, reference compound] | 20.1 |  | 
2 | CCCCC/C=C\C/C=C\C/C=C\C/C=C\CCCC(=O)N[C@@H](CC(=O)O)C(=O)O [arachidonic acid-aspartic acid-OH, Arachidonic-aspartic acid-OH] |  | 39.7 | 
3 | CCCCC/C=C\C/C=C\C/C=C\C/C=C\CCCC(=O)NCC(=O)O [arachidonic acid-glycine-OH, Arachidonic Acid-Glycine-OH] | 84.2 | 8 | 
4 | CC/C=C\C/C=C\C/C=C\C/C=C\C/C=C\C/C=C\CCC(=O)N[C@@H](CC(=O)O)C(=O)O [docosahexaenoic acid-aspartic acid-OH, Docosahexaenoic Acid-Aspartic Acid-OH] |  |  | 21.1
5 | CC/C=C\C/C=C\C/C=C\C/C=C\C/C=C\C/C=C\CCC(=O)NCC(=O)O [docosahexaenoic acid-glycine-OH, Docosahexaenoic acid-glycine-OH] | 84.9 |  | 16.6
6 | CC/C=C\C/C=C\C/C=C\C/C=C\C/C=C\CCCC(=O)N[C@@H](CC(=O)O)C(=O)O [eicosapentaenoic acid-aspartic acid-OH, Eicosapentaenoic acid-aspartic acid-OH] |  |  | 20.7
7 | CC/C=C\C/C=C\C/C=C\C/C=C\C/C=C\CCCC(=O)NCC(=O)O [eicosapentaenoic acid-glycine-OH, Eicosapentaenoic acid-glycine-OH] |  |  | 5.4
8 | CC/C=C\C/C=C\C/C=C\CCCCCCCC(=O)N[C@@H](CC(=O)O)C(=O)O [α-linolenic acid-aspartic acid-OH, Linolenic Acid-Aspartic Acid-OH] |  |  | 15.4
9 | CC/C=C\C/C=C\C/C=C\CCCCCCCC(=O)NCC(=O)O [α-linolenic acid-glycine-OH, Linolenic Acid-Glycine-OH] | 81.5 |  | 29
10 | CCCCC/C=C\C/C=C\C/C=C\CCCCC(=O)N[C@@H](CC(=O)O)C(=O)O [γ-linolenic acid-aspartic acid-OH, Gamma Linolenic-Aspartic Acid-OH] |  |  | 7.3
11 | CCCCC/C=C\C/C=C\C/C=C\CCCCC(=O)NCC(=O)O [γ-linolenic acid-glycine-OH, Gamma Linolenic Acid-Glycine-OH] |  |  | 15.6
